# Data as given in ChEMBL document CHEMBL5360530, “Structure activity relationship (SAR) and anticancer activity of pyrrolidine derivatives: Recent developments and future prospects (A review)” (Eur J Med Chem, 2023).
# pIC50: −log10 of the molar value.
# Legend:
# HCT-116 [1] = assay: Anticancer activity against human HCT-116 cells assessed as cell growth inhibition measured after 48 hrs by MTT assay; type: functional, cell-based; details: HCT-116, 48 h
# HepG2 [2] = assay: Anticancer activity against human HepG2 cells assessed as cell growth inhibition measured after 48 hrs by MTT assay; type: functional, cell-based; details: HepG2, 48 h
# PC-3 [3] = assay: Anticancer activity against human PC-3 cells assessed as cell growth inhibition measured after 48 hrs by MTT assay; type: functional, cell-based; details: PC-3, 48 h
# HCT-116 [4] = assay: Potency index, ratio of cisplatin IC50 to test compound IC50 for anticancer activity against human HCT-116 cells; type: functional
# HepG2 [5] = assay: Potency index, ratio of cisplatin IC50 to test compound IC50 for anticancer activity against human HepG2 cells; type: functional
# PC-3 [6] = assay: Potency index, ratio of cisplatin IC50 to test compound IC50 for anticancer activity against human PC-3 cells; type: functional
# HT-29 = assay: Anticancer activity against human HT-29 cells assessed as cell growth inhibition measured after 24 hrs by MTT assay; type: functional, cell-based; details: HT-29, 24 h
# MCF7 [7] = assay: Anticancer activity against human MCF7 cells assessed as cell growth inhibition measured after 24 hrs by MTT assay; type: functional, cell-based; details: MCF7, 24 h
# MCF7 [8] = assay: Growth inhibition of human MCF7 cells assessed as cell growth inhibition by SRB assay; type: functional
# MCF7 [9] = assay: Anticancer activity against human MCF7 cells assessed as cell growth inhibition measured after 48 hrs by WST-1 assay; type: functional, cell-based; details: MCF7, 48 h
# K562 = assay: Anticancer activity against human K562 cells assessed as cell growth inhibition measured after 48 hrs by WST-1 assay; type: functional, cell-based; details: K562, 48 h
# MCF7 [10] = assay: Anticancer activity against human MCF7 cells assessed as cell growth inhibition measured after 24 hrs by SRB assay; type: functional, cell-based; details: MCF7, 24 h
# HCT-116 [11] = assay: Anticancer activity against human HCT-116 cells assessed as cell growth inhibition measured after 24 hrs by SRB assay; type: functional, cell-based; details: HCT-116, 24 h
# Mahlavu = assay: Anticancer activity against human Mahlavu cells assessed as cell growth inhibition measured after 24 hrs by SRB assay; type: functional, cell-based
# Huh-7 = assay: Anticancer activity against human Huh-7 cells assessed as cell growth inhibition measured after 24 hrs by SRB assay; type: functional, cell-based; details: Huh-7, 24 h
# COS-7 = assay: Anticancer activity against COS-7 cells assessed as cell growth inhibition at 50 uM measured after 48 hrs by MTT assay relative to control; type: functional; details: Chlorocebus aethiops
# MDA-MB-435 [12] = assay: Growth inhibition of human MDA-MB-435 cells assessed as cell growth inhibition by SRB assay; type: functional
# MDA-MB-435 [13] = assay: Anticancer activity against human MDA-MB-435 cells assessed as cell growth inhibition by SRB assay; type: functional, cell-based
# MCF7 [14] = assay: Anticancer activity against human MCF7 cells assessed as cell growth inhibition by SRB assay; type: functional, cell-based
# HCT-116 [15] = assay: Anticancer activity against human HCT-116 cell assessed as cell growth inhibition; type: functional, cell-based
# HepG2 [16] = assay: Anticancer activity against human HepG2 cell assessed as cell growth inhibition; type: functional, cell-based
# PC-3 [17] = assay: Anticancer activity against human PC-3 cell assessed as cell growth inhibition; type: functional, cell-based
# PC-3 [18] = assay: Anticancer activity against human PC-3 cells assessed as cell death at 50 uM measured after 72 hrs by MTT assay relative to control; type: functional
smiles,measurement,setting,value
O=C(/C=C/c1ccc(Cl)cc1)[C@H]1[C@H](c2ccc(Cl)cc2)[C@H]2CSCN2[C@]12C(=O)Nc1ccccc12,pIC50,HCT-116 [1],5.60
same,pIC50,HepG2 [2],6.00
same,pIC50,PC-3 [3],≤ 5.57
same,Ratio IC50,HCT-116 [4],4
same,Ratio IC50,HepG2 [5],2
same,Ratio IC50,PC-3 [6],1.8
CC(C)(C)c1cc(/C=N/N2C(=O)c3ccccc3C2=O)c(O)c(C(C)(C)C)c1,pIC50,HT-29,3.18
same,pIC50,MCF7 [7],3.53
O=C(/C=C/c1c(Cl)cccc1Cl)c1ccc(OCCN2CCCC2)cc1,GI50,MCF7 [8],> 80 mg/L
O=C(/C=C/c1ccc(Cl)cc1Cl)c1ccc(OCCN2CCCC2)cc1,GI50,MCF7 [8],24.7 mg/L
O=C1/C(=C/c2ccc(Br)cc2)CCC[C@]12[C@@H](c1ccc(Br)cc1)[C@@H]1CSCN1[C@]21C(=O)Nc2ccccc21,pIC50,MCF7 [9],4.81
same,pIC50,K562,4.83
O=C(/C=C/c1ccccc1)c1ccc(OCCN2CCCC2)cc1,GI50,MCF7 [8],< 10 mg/L
O=C1/C(=C/c2cccc(F)c2)CCC[C@]12[C@@H](c1cccc(F)c1)[C@@H]1CSCN1[C@]21C(=O)Nc2ccccc21,pIC50,MCF7 [9],4.81
same,pIC50,K562,4.81
CCNC(=O)[C@H]1[C@H](c2ccc([N+](=O)[O-])cc2)[C@@]2(C(=O)Nc3ccccc32)[C@H](CC(C)C)N1[C@H](c1ccccc1)[C@@H](O)c1ccccc1,pIC50,MCF7 [10],5.32
same,pIC50,HCT-116 [11],5.41
same,pIC50,Mahlavu,4.83
same,pIC50,Huh-7,5.09
COc1cccc2c1C(=O)c1c(O)c3c(c(O)c1C2=O)C[C@@](O)(C(=O)CO)C[C@@H]3O[C@H]1C[C@H](N)[C@H](O)[C@H](C)O1.Cl [DOXORUBICIN HYDROCHLORIDE],GI50,MCF7 [8],< 10 mg/L
COc1cc(OC)c(C2NCCC23C(=O)Nc2ccccc23)cc1OC (stereo not given),inhibition at 50 µM,COS-7,0.51%
N#CC1=C(N)OC2=C(C(=O)CO2)C12C(=O)Nc1ccc(Cl)cc12 (stereo not given),GI50,MDA-MB-435 [12],2.1 µM
same,pIC50,MDA-MB-435 [13],≤ 5.44
same,pIC50,MCF7 [14],≤ 4.28
O=C(/C=C/c1ccc(Cl)cc1Cl)[C@H]1[C@H](c2ccc(Cl)cc2Cl)[C@H]2CSCN2[C@]12C(=O)Nc1ccccc12,pIC50,HCT-116 [1],5.70
same,pIC50,HepG2 [2],6.00
same,pIC50,PC-3 [3],≤ 5.57
same,Ratio IC50,HCT-116 [4],4
same,Ratio IC50,HepG2 [5],2
same,Ratio IC50,PC-3 [6],1.8
Cc1ccc([C@@H]2[C@@H](C(=O)c3c[nH]c4ccccc34)[C@]3(C(=O)Nc4ccccc43)N3CSC[C@@H]23)cc1,pIC50,HCT-116 [15],5.05
same,pIC50,HepG2 [16],5.26
same,pIC50,PC-3 [17],5.22
COC(=O)[C@H]1C[C@@H](C(=O)OC)C(c2ccccc2)(c2ccccc2)N1C(=O)Cn1cc(-c2ccccc2)nn1,Activity,PC-3 [18],30%
COC(=O)[C@H]1C[C@@H](C(=O)OC)C(c2ccccc2)(c2ccccc2)N1C(=O)Cn1cc(C2CCCC2)nn1,Activity,PC-3 [18],30%
O=C1Nc2ccccc2C12CCNC2c1cc(C(F)(F)F)ccc1C(F)(F)F (stereo not given),inhibition at 50 µM,COS-7,0.51%
O=C1c2ccccc2C(=O)N1/N=C/c1ccccc1,pIC50,HT-29,3.19
same,pIC50,MCF7 [7],3.53
O=C(c1c[nH]c2ccccc12)[C@@H]1[C@@H](c2cccc(C(F)(F)F)c2)[C@@H]2CSCN2[C@@]12C(=O)Nc1ccccc12,pIC50,HCT-116 [15],5.15
same,pIC50,HepG2 [16],5.26
N#CC1=C(N)OC2=C(C(=O)CO2)C12C(=O)Nc1ccc(I)cc12 (stereo not given),GI50,MDA-MB-435 [12],27.3 µM
same,pIC50,MDA-MB-435 [13],≤ 5.44
same,pIC50,MCF7 [14],≤ 4.28
O=C(/C=C/c1ccc(OCCN2CCCC2)cc1)c1ccc(Cl)cc1Cl,GI50,MCF7 [8],> 80 mg/L
N#CC1=C(N)OC2=C(c3ccccc3C2=O)C12C(=O)Nc1ccc(Cl)cc12 (stereo not given),pIC50,MDA-MB-435 [13],≤ 5.44
same,pIC50,MCF7 [14],≤ 4.28
O=C(c1c[nH]c2ccccc12)[C@@H]1[C@@H](c2ccc(Cl)cc2Cl)[C@@H]2CSCN2[C@@]12C(=O)Nc1ccccc12,Ratio IC50,PC-3 [6],>4.3
same,pIC50,HepG2 [16],5.26
COc1ccc(/C=C2\CCC[C@@]3(C2=O)[C@@H](c2ccc(OC)cc2)[C@@H]2CSCN2[C@]32C(=O)Nc3ccccc32)cc1,pIC50,MCF7 [9],4.61
same,pIC50,K562,4.83
N#CC1=C(N)OC2=C(c3ccccc3C2=O)C12C(=O)Nc1ccc(Br)cc12 (stereo not given),pIC50,MDA-MB-435 [13],≤ 5.44
same,pIC50,MCF7 [14],≤ 4.28
N#CC1=C(N)OC2=C(C(=O)CO2)C12C(=O)Nc1ccc(Br)cc12 (stereo not given),GI50,MDA-MB-435 [12],1.8 µM
same,pIC50,MDA-MB-435 [13],≤ 5.44
same,pIC50,MCF7 [14],≤ 4.28
